According to ChEMBL document CHEMBL3272350, “Drugs derived from cannabinoids. 4. Effect of alkyl substitution in sulfur and carbocyclic analogs” (J Med Chem, 1976):
The source made the active and inactive calls.

Tests used:
[1] = system: Mus musculus; assay: Antidepressant activity in mouse assessed as potentiation of dopa-induced motor responses at 5 mg/kg, po pretreated with compound followed by dopa challenge for 4 hrs; type: functional, organism-based; parameters: dose 5 mg/kg
[2] = system: Felis catus; assay: Sedative-hypnotic activity in cat assessed as increase in total sleep time at 0.1 mg/kg, po administered with diet for 15 to 20 mins measured for 14 hrs; type: functional
[3] = Acute toxicity in po dosed Swiss-Webster mouse assessed as mortality measured for 7 days; type: organism-based; settings: in vivo
[4] = system: Mus musculus; assay: Antianxiety activity in albino BALB/cJ mouse assessed as reduction of footshock-induced fighting behavior at 10 mg/kg, po after 90 mins relative to control; type: functional; parameters: scale not given: the % may be the effect or the level left
[5] = system: Canis familiaris; assay: Antianxiety activity in dog assessed as decrease in reactivity and ataxia at 0.1 mg/kg, po administered as single dose measured every 15 mins for 24 hrs; type: functional, organism-based; parameters: dose 0.1 mg/kg; settings: Canis lupus familiaris
[6] = system: Felis catus; assay: Sedative-hypnotic activity in cat assessed as increase in total sleep time at 0.25 mg/kg, po administered with diet for 15 to 20 mins measured for 14 hrs; type: functional
[7] = system: Canis familiaris; assay: Antianxiety activity in dog assessed as decrease in reactivity and ataxia at 1 mg/kg, po administered as single dose measured every 15 mins for 24 hrs; type: functional, organism-based; parameters: dose 1 mg/kg; settings: Canis lupus familiaris
[8] = system: Mus musculus; assay: Analgesic activity in po dosed mouse assessed as inhibition of acetic acid-induced writhing administered 30 mins prior to acetic acid challenge measured after 5 mins for 20 mins; type: functional
[9] = system: Mus musculus; assay: Analgesic activity in po dosed mouse by hot-plate test; type: functional
[10] = system: Mus musculus; assay: Anticonvulsant activity in mouse assessed as protection against audiogenic seizure at 10 mg/kg, po administered for 1 hr prior to testing relative to control; type: functional
[11] = system: Canis familiaris; assay: Antianxiety activity in dog assessed as decrease in reactivity and ataxia at 10 mg/kg, po administered as single dose measured every 15 mins for 24 hrs; type: functional, organism-based; parameters: dose 10 mg/kg; settings: Canis lupus familiaris
[12] = system: Mus musculus; assay: Anticonvulsant activity in mouse assessed as protection against audiogenic seizure at 30 mg/kg, po administered for 1 hr prior to testing relative to control; type: functional
[13] = system: Felis catus; assay: Sedative-hypnotic activity in cat assessed as increase in total sleep time at 0.5 mg/kg, po administered with diet for 15 to 20 mins measured for 14 hrs; type: functional
[14] = system: Rattus norvegicus; assay: Analgesic activity in po dosed Sprague-Dawley rat assessed as increase in pain threshold measured at 15 to 90 mins by tail-flick test; type: functional
[15] = system: Felis catus; assay: Sedative-hypnotic activity in cat assessed as increase in total sleep time at 1 mg/kg, po administered with diet for 15 to 20 mins measured for 14 hrs; type: functional
[16] = system: Felis catus; assay: Sedative-hypnotic activity in cat assessed as increase in total sleep time at 2 mg/kg, po administered with diet for 15 to 20 mins measured for 14 hrs; type: functional
[17] = system: Canis familiaris; assay: Antianxiety activity in dog assessed as decrease in reactivity at 0.1 mg/kg, po administered as single dose measured every 15 mins for 24 hrs; type: functional, organism-based; parameters: dose 0.1 mg/kg; settings: Canis lupus familiaris
[18] = system: Canis familiaris; assay: Antianxiety activity in dog assessed as decrease in reactivity at 1 mg/kg, po administered as single dose measured every 15 mins for 24 hrs; type: functional, organism-based; parameters: dose 1 mg/kg; settings: Canis lupus familiaris

SMILES	Activity [1]	Time [2] [min]	LD50 at 168 h [3] [mg/kg]	Activity [4] [%]	Activity [5]	Time [6] [min]	Activity [7]	ED50 [8] [mg/kg]	ED50 [9] [mg/kg]	Activity [10]	Activity [11]	Activity [12] [%]	Time [13] [min]	ED50 [14] [mg/kg]	Time [15] [min]	Time [16] [min]	Activity [17]	Activity [18]
CCCCCC(C)C(C)c1cc(O)c2c(c1)OC(C)(C)C1=C2C(C)CS1 (stereo not given)	Active	21	> 500	33	Active	50	Active	4.7	1.4	33%								
CCCCCC(C)C(C)c1cc(O)c2c(c1)OC(C)(C)C1=C2CC(C)C1 (stereo not given)	Active		> 500	1			Active	22.6		inactive	Active							
CCCCCC(C)C(C)c1cc(O)c2c(c1)OC(C)(C)C1=C2CC(C)S1 (stereo not given)	Active		> 500	33				34		1%	Active							
CCCCCC(C)C(C)c1cc(O)c2c(c1)OC(C)(C)C1=C2C(C)CCC1 (stereo not given)	Active		> 500	33			Active	10.5	25		Active	33	54					
CCCCCC(C)C(C)c1cc(O)c2c(c1)OC(C)(C)C1=C2CC(C)(C)C1 (stereo not given)	Active		> 500	33				> 40		inactive	Active			> 40				
CCCCCC(C)C(C)c1cc(O)c2c(c1)OC(C)(C)C1=C2CCS1 (stereo not given)	Active		> 500	33						33%	Active				30	31	Active	
CCCCCC(C)C(C)c1cc(O)c2c(c1)OC(C)(C)C1=C2C(C)CC1 (stereo not given)	Active		> 500	66			Active	13.3		66%	Active		58					
CCCCCC(C)C(C)c1cc(O)c2c(c1)OC(C)(C)C1=C2CC(C)CC1 (stereo not given)	Active		> 500	66			Active	19.6	12.4	66%	Active		62					
CCCCCC(C)C(C)c1cc(O)c2c(c1)OC(C)(C)C1=C2CC(C)(C)S1 (stereo not given)	Active		> 500	1				> 40		1%	Active							
CCCCCC(C)C(C)c1cc(O)c2c(c1)OC(C)(C)C1=C2CCC1 (stereo not given)	Active		> 500	33				25.3	45.1	1%	Active		59			65		Active
